According to BigSolDB 2.1:

O=Cc1cc(C=O)cc(C=O)c1
solubility (mole fraction)
Settings | 283.15 K | 288.15 K | 293.15 K | 298.15 K | 303.15 K | 308.15 K | 313.15 K | 318.15 K | 323.15 K
in 1,4-dioxane | – | 0.0135 | 0.0164 | 0.0206 | 0.0249 | 0.0288 | 0.0336 | 0.0372 | 0.041
in acetone | 0.01 | 0.0112 | 0.0132 | 0.0152 | 0.0191 | 0.023 | 0.0265 | 0.0307 | 0.035
in acetonitrile | 0.00502 | 0.00616 | 0.00711 | 0.00872 | 0.01 | 0.0113 | 0.0137 | 0.0153 | 0.0178
in ethanol | 0.0018 | 0.00208 | 0.00251 | 0.00297 | 0.00365 | 0.00429 | 0.0052 | 0.00614 | 0.00703
in isobutanol | 0.000219 | 0.000308 | 0.000396 | 0.000488 | 0.000917 | 0.00193 | 0.00277 | 0.00387 | 0.00601
in isopropanol | 0.000462 | 0.000512 | 0.000605 | 0.00069 | 0.000803 | 0.00147 | 0.00216 | 0.00291 | 0.00363
in methanol | 0.00351 | 0.00442 | 0.00563 | 0.00691 | 0.00858 | 0.0101 | 0.0122 | 0.0142 | 0.0158
in n-butanol | 0.000718 | 0.000765 | 0.000864 | 0.0013 | 0.00181 | 0.00242 | 0.00288 | 0.0037 | 0.00565
in n-pentanol | 0.00134 | 0.00153 | 0.00185 | 0.00216 | 0.00244 | 0.00276 | 0.00341 | 0.0042 | 0.00538
in n-propanol | 0.000909 | 0.00104 | 0.00131 | 0.00154 | 0.00194 | 0.00243 | 0.00296 | 0.00347 | 0.00405
in sec-butanol | 0.000294 | 0.000394 | 0.000601 | 0.000789 | 0.00101 | 0.00128 | 0.00155 | 0.00206 | 0.00254
in water | 4.1e-05 | 6.1e-05 | 8.8e-05 | 0.000108 | 0.000132 | 0.000152 | 0.00017 | 0.000185 | 0.000198
